Data as given in patent US20230287416A1, “COMBINATORY TREATMENT OF SMA WITH SARNA AND MRNA MODULATORS” (RACTIGEN THERAPEUTICS, priority 2020, published 2023).

What was measured:
Assay type in all cases: cell-based, human
[1] = system: SMN2 mRNA; test: Semi-quantitative RT-PCR (DdeI digestion) of SMN2FL and SMN2 Δ7 in GM03813 cells; conditions: GM03813, 72 h
Experimental: Seventy-two hours later, total cellular RNA was isolated from the treated cells and reverse transcribed into cDNA. SMN2 mRNA expression was assessed with RT-qPCR using primer pairs specific for SMN2FL or SMN2 Δ7. SMN2 mRNA expression was also assessed by semi-quantitative RT-PCR using a primer pair that amplifies both SMN2FL and SMN2 Δ7 followed by DdeI digestion (PCR/digestion). […] After digestion, both bands were reduced by 115 bp, resulting in two products: 392 bp (SMN2FL) and 338 bp (SMN2 Δ7) as shown on the gel of FIG. 3D. FIG. 3A-3D show dose-dependent changes in SMN2FL and SMNΔ7 mRNA as assessed by RT-qPCR and PCR/digestion respectively. FIG. 3E-3G are graphic plots of data from quantitating the intensity of bands in FIG. 3D.
(§1) SMA patient derived fibroblasts were obtained from Coriell Institute (Camden, N.J., USA), including GM00232 (SMA type I with 2 copies of SMN2 gene) and GM03813 (SMA type II with 3 copies of SMN2 gene). These cells were cultured at 5% C02 and 37° C. in modified MEM medium (Gibco, Thermo Fisher Scientific, Carlsbad, Calif.) supplemented with 15% bovine calf serum (Sigma-Aldrich), 1% NEAA (Gibco) and 1% penicillin/streptomycin (Gibco). To transfect oligonucleotides including saRNAs, siRNA and ASO, cells were seeded into 6-well plates at a density of 1×10^5 cells/well and were transfected with oligonucleotides at different concentrations using RNAiMax (Invitrogen, Carlsbad, Calif.) according to the reverse transfection protocol provided by the manufacturer for 72 hours (unless otherwise specified). For Risdiplam treatment of cells, Risdiplam (HY-109101, MedChem Express Company, Monmouth Junction, N.J., USA) dissolved in DMSO was added directly to cells at desired concentration for 72 hours unless specified otherwise.
To amplify both SMN2FL and SMN2 Δ7 in one reaction, cDNA was amplified by semi-quantitative RT-PCR using primers that spans exon 7 of SMN2 (Table 5) (FIG. 2). The PCR reaction conditions were: 94° C. for 2 minutes (1 cycle), 98° C. for 10 seconds, 60° C. for 15 seconds, 72° C. for 32 seconds, cycled for 30 time with a final 5 minutes extension at 72° C. To further differentiate SMN1 mRNA from SMN2, the resultant PCR products of SMN were digested by DdeI restriction enzyme (R0175L, NEB) and then separated by 2% agarose gel. Due to a nucleotide variant on […] of SMN2, a DdeI recognition site exists in PCR products amplified from SMN2 gene but not from SMN1 gene, DdeI digestion releases a 115 bp fragment from both SMN2FL and SMN2 Δ7, resulting […]: 507 (SMN1FL), 338 (SMN2 Δ7), 392 (SMN2FL) and 115 bp (FIG. 2). TBP gene was also amplified as a RNA loading control. The DdeI digestion reaction conditions were: 37° C. for 60 minutes and 65° C. for 20 minutes, 1cycle.

[2] = system: SMN2 mRNA; test: RT-qPCR of SMN2FL and SMN2 Δ7 mRNA in GM00232 cells; conditions: GM00232, 72 h
[3] = system: SMN2 mRNA; test: Semi-quantitative RT-PCR/DdeI digestion of SMN2FL and SMN2 Δ7 in GM00232 cells; conditions: GM00232, 72 h
Experimental: (§2) To determine whether the combination of saRNA (DS06-0004) and ASO-10-27 has an enhanced effect on SMN2FL induction in type I SMA cells, GM00232 cells were transfected with DS06-0004 and ASO-10-27 alone or in combination at different concentrations for 72 hours. SMN2 expression was assessed in the treated cells by RT-qPCR (FIGS. 4A and 4D) and PCR/digestion (FIGS. 4B, 4C and 4E).
as §1, with “For Risdiplam treatment of cells, Risdiplam (HY-109101, MedChem Express Company, Monmouth Junction, N.J., USA) dissolved in DMSO was added directly to cells at desired concentration for 72 hours unless specified otherwise.” left out
To amplify both SMN2FL and SMN2 Δ7 in one reaction, cDNA was amplified by semi-quantitative RT-PCR using primers that spans exon 7 of SMN2 (Table 5) (FIG. 2). […]

[4] = system: SMN2 mRNA; test: RT-qPCR of SMN2FL and SMN2 Δ7 mRNA in GM00232 cells; conditions: GM00232, 72 h; remark: listed apart in the source
Experimental: as §2
“GM00232 cells” refers to fibroblast cells provided by Coriell Institute for Medical Research. This cell line is described as SPINAL MUSCULAR ATROPHY I; SMA1. The donor subject has 2 copies of the SMN2 gene (data from several sources including Stabley et al. 2015, PMID 26247043) and is homozygous for deletion of exons 7 and 8 of the SMN1 gene. The relevant gene is SMN1; the chromosomal location is 5q12.2-q13.3, the allelic variant is described as exons 7 and 8 deleted; SPINAL MUSCULAR ATROPHY, TYPE I; and the identified mutation: is EX7-8DEL. The phenotype data derived from a fibroblast from skin (arm) of the following subject characterized as: Progressive muscular atrophy; absent deep tendon reflexes; abnormal EMG; donor subject has 2 copies of the SMN2 gene (data from several sources including Stabley et al. 2015, PMID 26247043) and is homozygous for deletion of exons 7 and 8 of the SMN1 gene.
as §1
For RNA isolation from cultured cells, total cellular RNA was isolated from treated cells using an RNeasy Plus Mini kit (Qiagen, Hilden, Germany) according to its manual. To isolated RNA from animal tissues, tissues were harvested and stored at RNA later (AM7021, Thermo Fisher). Total RNA was then isolated using MagPure Total RNA Micro LQ kit (Magen, R6621, China) by auto-pure96 machine (ALLSHENG, China). The resultant RNA (1 μg) was reverse transcribed into cDNA by using a PrimeScript RT kit containing gDNA Eraser (Takara, Shlga, Japan). The resultant cDNA was amplified in an ABI 7500 Fast Real-time PCR System (Applied Biosystems; Foster City, Calif.) using SYBR Premix Ex Taq 11 (Takara, Shlga, Japan) reagents and primers which specifically amplified full-length (SMN2FL) or A7 SMN2 mRNA (SMN2 Δ7) (FIG. 1). The reaction conditions were: 95° C. for 3 seconds (1 cycle) and 60° C. for 30 seconds (40 cycles). Amplification of TBP gene served as an internal control.

[5] = PCR/digestion (Example 1, FIG. 3E)

Compound: Cc1cn2nc(-c3cc(=O)n4cc(N5CCNC6(CC6)C5)ccc4n3)cc(C)c2n1 [Risdiplam]
- SMN2FL mRNA fold change ([1]; 1250 nM, PCR/DdeI digestion (Example 8, FIG. 10D-10F)): 2.1 fold
- SMN2FL mRNA fold change ([2]; 50 nM (Example 6, FIG. 8A-8C)): 1.2 fold
- SMN2 Δ7 mRNA change ([2]; 50 nM, 250 nM and 1250 nM (Example 6)): decrease
- SMN2FL mRNA fold change ([2]; 250 nM (Example 6)): 1.8 fold
- SMN2FL mRNA fold change ([2]; 1250 nM (Example 6)): 1.9 fold
- SMN2FL mRNA fold change ([3]; 1250 nM, PCR/DdeI digestion (Example 6, FIG. 8D-8F)): 2.3 fold

Compound: DS06-0004: saRNA targeting SMN2 promoter at -281; SEQ ID NO: 476/477 (Table 8: SEQ ID NO: 131/288) (chain 1 AGACGAGGCCUAAGCAACATT; chain 2 UGUUGCUUAGGCCUCGUCUTT; chemistry not given here)
- SMN2FL mRNA fold change ([2]; 1 nM (Example 6)): 1.8 fold
- SMN2 Δ7 mRNA fold change ([2]; 1 nM (Example 6)): 1.6 fold
- SMN2FL mRNA fold change ([2]; 5 nM (Example 6)): 2.1 fold
- SMN2 Δ7 mRNA fold change ([2]; 5 nM (Example 6)): 1.6 fold
- SMN2 Δ7 mRNA fold change ([2]; 25 nM (Example 2)): 2.1 fold
- SMN2FL mRNA fold change ([2]; 25 nM (Example 6)): 2.0 fold
- SMN2 Δ7 mRNA fold change ([2]; 25 nM (Example 6)): 1.7 fold
- SMN2 Δ7 mRNA fold change ([4]; 1 nM (Example 2)): 1.5 fold
- SMN2FL mRNA fold change ([4]; 1 nM (Example 2, FIG. 4A)): 1.7 fold
- SMN2FL mRNA fold change ([4]; 5 nM (Example 2)): 2.4 fold
- SMN2 Δ7 mRNA fold change ([4]; 5 nM (Example 2)): 1.9 fold
- SMN2FL mRNA fold change ([4]; 25 nM (Example 2)): 2.4 fold

Compound: Nusinersen [ASO-10-27]
- SMN2FL mRNA fold change ([1]; 25 nM, semi-quantitative RT-PCR/DdeI digestion (Example 4, FIG. 6B-6C)): 2.1 fold
- concentration at which expression of SMN2FL reached its peak [1, 5]: 10 nM
- concentration at which expression of SMNΔ7 almost approached the lowest value [1, 5]: 5 nM
- SMN2FL mRNA fold change ([1]; alone or in combination at 10 nM, semi-quantitative RT-PCR (Example 10, FIG. 12B-12C)): 1.4 fold
- SMN2FL mRNA fold change ([3]; 25 nM, PCR/DdeI digestion (Example 2, FIG. 4B-4C)): 2.3 fold
- SMN2FL mRNA fold change ([4]; 1 nM (Example 2, FIG. 4A)): 1.3 fold
- SMN2 Δ7 mRNA change ([4]; 1 nM, 5 nM and 25 nM (Example 2)): decrease
- SMN2FL mRNA fold change ([4]; 5 nM (Example 2)): 1.8 fold
- SMN2FL mRNA fold change ([4]; 25 nM (Example 2)): 1.9 fold
